Assay results from ChEMBL document CHEMBL1158932, “Cytotoxic pyridone alkaloids from the leaves of Piper aborescens” (1990).
≈ marks a conversion by molar mass, not a printed value.

Legend:
Assay type in all cases: functional
[1] = tested on: A549; experiment: Cytotoxicity against human A549 cells after 6 days by MTT assay; conditions: A549, 144 h, read-out: ED50 (the source's name)
[2] = tested on: P388; experiment: Cytotoxicity against mouse P388 cells after 3 days by MTT assay; conditions: P388, 72 h, read-out: ED50 (the source's name)
[3] = tested on: HT-29; experiment: Cytotoxicity against human HT-29 cells after 6 days by MTT assay; conditions: HT-29, 144 h, read-out: ED50 (the source's name)
[4] = tested on: KB; experiment: Cytotoxicity against human KB cells after 3 days by MTT assay; conditions: 72 h, read-out: ED50 (the source's name)

COc1cc(C2C(C(=O)N3CCC=CC3=O)[C@H](c3cc(OC)c(OC)c(OC)c3)[C@@H]2C(=O)N2CCC=CC2=O)cc(OC)c1OC (stereo partly specified) [PIPLARTINE DIMER A]
EC50 [1]: 2.21 µg/mL (≈ 3.48 µM) | EC50 [2]: 3.06 µg/mL (≈ 4.82 µM) | EC50 [3]: 2.49 µg/mL (≈ 3.92 µM) | EC50 [4]: 3.9 µg/mL (≈ 6.14 µM)

COc1cc(CCC(=O)N2CCC=CC2=O)cc2c1OCO2
EC50 [1]: 5.76 µg/mL (≈ 19 µM) | EC50 [2]: 2.21 µg/mL (≈ 7.29 µM) | EC50 [3]: 3.8 µg/mL (≈ 12.5 µM) | EC50 [4]: 4.99 µg/mL (≈ 16.5 µM)

COc1cc(/C=C/C(=O)N2CCC=CC2=O)cc(OC)c1OC [PIPLARTINE]
EC50 [1]: 0.6 µg/mL (≈ 1.89 µM) | EC50 [2]: 0.9 µg/mL (≈ 2.84 µM) | EC50 [3]: 0.45 µg/mL (≈ 1.42 µM) | EC50 [4]: 1.8 µg/mL (≈ 5.67 µM)

COc1cc(/C=C/C(=O)N2CCC=CC2=O)cc2c1OCO2
EC50 [1]: 2.57 µg/mL (≈ 8.53 µM) | EC50 [2]: 0.43 µg/mL (≈ 1.43 µM) | EC50 [3]: 2.15 µg/mL (≈ 7.14 µM) | EC50 [4]: 2.62 µg/mL (≈ 8.7 µM)
